Experimental data as given in ChEMBL document CHEMBL3991601, “The target landscape of clinical kinase drugs” (Science, 2017).
Activity calls are given as the source filed them. Rule as the data show it, for most assays here: actives have a measured Kd and inactives only a lower limit.
Also: in the data inactive means no Kd found up to 30 µM.

The molecules below were run against T1, Membrane-associated tyrosine- and threonine-specific cdc2-inhibitory kinase (Homo sapiens, UniProt Q99640).
T1 sequence (Q99640 whole entry): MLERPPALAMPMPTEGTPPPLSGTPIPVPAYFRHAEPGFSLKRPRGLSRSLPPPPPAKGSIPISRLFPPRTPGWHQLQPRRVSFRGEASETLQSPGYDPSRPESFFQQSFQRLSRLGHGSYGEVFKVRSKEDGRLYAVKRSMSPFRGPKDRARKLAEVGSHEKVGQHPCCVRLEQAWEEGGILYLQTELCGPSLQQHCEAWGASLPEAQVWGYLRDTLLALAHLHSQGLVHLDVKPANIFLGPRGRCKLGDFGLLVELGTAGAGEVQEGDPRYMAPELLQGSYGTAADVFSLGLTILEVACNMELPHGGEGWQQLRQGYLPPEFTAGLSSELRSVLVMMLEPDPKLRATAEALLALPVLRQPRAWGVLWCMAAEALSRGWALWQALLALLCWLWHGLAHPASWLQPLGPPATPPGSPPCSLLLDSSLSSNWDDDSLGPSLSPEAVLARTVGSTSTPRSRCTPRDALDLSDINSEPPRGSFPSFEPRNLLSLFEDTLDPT
`C[C@@H](c1ccc2nccn2c1)n1nnc2ncc(-c3cnn(C)c3)nc21` [SAVOLITINIB] was tested, and the Kd was > 30 µM (inactive).
In the case of `C[C@@H]1CN(Cc2ccc(F)cc2)[C@@H](C)CN1C(=O)c1cc2c(C(=O)C(=O)N(C)C)cn(C)c2cc1Cl` [TALMAPIMOD], the Kd is reported as > 30 µM (inactive).
In the case of `CN1CCC(COc2cnc(-c3cccc(Cn4nc(-c5cccc(C#N)c5)ccc4=O)c3)nc2)CC1` [TEPOTINIB], the Kd is reported as > 30 µM (inactive).

Each molecule was assayed against Cyclin-dependent kinase 7 (Homo sapiens, UniProt P50613).
Cyclin-dependent kinase 7, sequence (P50613 whole entry): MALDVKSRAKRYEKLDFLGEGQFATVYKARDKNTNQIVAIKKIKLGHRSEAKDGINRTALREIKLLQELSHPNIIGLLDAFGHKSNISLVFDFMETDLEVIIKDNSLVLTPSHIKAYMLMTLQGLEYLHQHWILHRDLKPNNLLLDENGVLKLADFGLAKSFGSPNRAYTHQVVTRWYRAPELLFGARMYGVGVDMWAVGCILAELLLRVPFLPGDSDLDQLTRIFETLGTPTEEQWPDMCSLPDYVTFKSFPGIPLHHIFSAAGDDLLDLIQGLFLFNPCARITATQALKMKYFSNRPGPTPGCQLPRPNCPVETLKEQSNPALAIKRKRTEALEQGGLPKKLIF
`C[C@@H](c1ccc2nccn2c1)n1nnc2ncc(-c3cnn(C)c3)nc21` [SAVOLITINIB] was tested, and the Kd was > 30 µM (inactive).
With `C[C@@H]1CN(Cc2ccc(F)cc2)[C@@H](C)CN1C(=O)c1cc2c(C(=O)C(=O)N(C)C)cn(C)c2cc1Cl` [TALMAPIMOD] the Kd was > 30 µM (inactive).
`CN1CCC(COc2cnc(-c3cccc(Cn4nc(-c5cccc(C#N)c5)ccc4=O)c3)nc2)CC1` [TEPOTINIB] was tested, and the Kd was > 30 µM (inactive).

Each molecule was assayed against T2, Very long-chain specific acyl-CoA dehydrogenase, mitochondrial (Homo sapiens, UniProt P49748).
T2 sequence (P49748 whole entry): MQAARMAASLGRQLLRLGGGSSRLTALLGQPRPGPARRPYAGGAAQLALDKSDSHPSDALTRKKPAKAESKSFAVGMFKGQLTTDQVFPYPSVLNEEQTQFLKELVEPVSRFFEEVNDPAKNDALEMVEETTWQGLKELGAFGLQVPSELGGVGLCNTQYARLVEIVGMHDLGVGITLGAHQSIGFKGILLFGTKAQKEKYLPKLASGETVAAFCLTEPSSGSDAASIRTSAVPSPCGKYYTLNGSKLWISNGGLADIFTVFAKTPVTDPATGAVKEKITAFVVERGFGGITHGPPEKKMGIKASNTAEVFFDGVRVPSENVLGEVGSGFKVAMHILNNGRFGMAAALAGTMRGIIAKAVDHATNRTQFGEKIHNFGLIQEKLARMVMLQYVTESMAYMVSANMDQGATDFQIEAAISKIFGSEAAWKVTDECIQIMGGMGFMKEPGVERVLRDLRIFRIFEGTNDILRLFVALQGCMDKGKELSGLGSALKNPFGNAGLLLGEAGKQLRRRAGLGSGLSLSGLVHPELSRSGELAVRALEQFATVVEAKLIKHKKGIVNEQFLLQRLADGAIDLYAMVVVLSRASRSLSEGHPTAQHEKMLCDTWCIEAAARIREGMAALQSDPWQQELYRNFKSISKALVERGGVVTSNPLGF
`C[C@@H](c1ccc2nccn2c1)n1nnc2ncc(-c3cnn(C)c3)nc21` [SAVOLITINIB] was tested, and the Kd was > 30 µM (inactive).
`C[C@@H]1CN(Cc2ccc(F)cc2)[C@@H](C)CN1C(=O)c1cc2c(C(=O)C(=O)N(C)C)cn(C)c2cc1Cl` [TALMAPIMOD] was tested, and the Kd was > 30 µM (inactive).
In the case of `CN1CCC(COc2cnc(-c3cccc(Cn4nc(-c5cccc(C#N)c5)ccc4=O)c3)nc2)CC1` [TEPOTINIB], the Kd is reported as > 30 µM (inactive).

What follows are molecules tested against Insulin receptor (Homo sapiens, UniProt P06213).
Insulin receptor, sequence (P06213 28-758 limits assumed): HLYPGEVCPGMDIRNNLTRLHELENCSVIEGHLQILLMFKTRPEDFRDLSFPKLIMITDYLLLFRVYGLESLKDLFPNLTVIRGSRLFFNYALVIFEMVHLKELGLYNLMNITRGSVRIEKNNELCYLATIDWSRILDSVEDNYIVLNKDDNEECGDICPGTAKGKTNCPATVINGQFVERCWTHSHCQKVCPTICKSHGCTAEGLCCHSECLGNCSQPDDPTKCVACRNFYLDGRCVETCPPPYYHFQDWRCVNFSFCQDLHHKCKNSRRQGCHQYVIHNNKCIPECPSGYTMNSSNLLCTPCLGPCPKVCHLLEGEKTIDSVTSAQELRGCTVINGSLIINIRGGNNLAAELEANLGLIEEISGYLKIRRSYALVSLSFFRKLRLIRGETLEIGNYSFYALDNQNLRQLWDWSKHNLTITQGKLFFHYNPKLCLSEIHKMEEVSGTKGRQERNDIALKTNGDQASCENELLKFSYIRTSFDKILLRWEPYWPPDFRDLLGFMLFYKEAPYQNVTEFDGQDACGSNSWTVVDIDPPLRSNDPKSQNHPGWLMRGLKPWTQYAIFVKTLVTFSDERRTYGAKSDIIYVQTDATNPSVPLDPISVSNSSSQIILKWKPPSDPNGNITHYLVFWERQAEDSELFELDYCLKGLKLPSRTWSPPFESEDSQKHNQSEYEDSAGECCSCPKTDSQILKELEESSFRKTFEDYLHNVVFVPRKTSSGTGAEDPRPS
Insulin receptor, sequence (P06213 763-1382 limits assumed): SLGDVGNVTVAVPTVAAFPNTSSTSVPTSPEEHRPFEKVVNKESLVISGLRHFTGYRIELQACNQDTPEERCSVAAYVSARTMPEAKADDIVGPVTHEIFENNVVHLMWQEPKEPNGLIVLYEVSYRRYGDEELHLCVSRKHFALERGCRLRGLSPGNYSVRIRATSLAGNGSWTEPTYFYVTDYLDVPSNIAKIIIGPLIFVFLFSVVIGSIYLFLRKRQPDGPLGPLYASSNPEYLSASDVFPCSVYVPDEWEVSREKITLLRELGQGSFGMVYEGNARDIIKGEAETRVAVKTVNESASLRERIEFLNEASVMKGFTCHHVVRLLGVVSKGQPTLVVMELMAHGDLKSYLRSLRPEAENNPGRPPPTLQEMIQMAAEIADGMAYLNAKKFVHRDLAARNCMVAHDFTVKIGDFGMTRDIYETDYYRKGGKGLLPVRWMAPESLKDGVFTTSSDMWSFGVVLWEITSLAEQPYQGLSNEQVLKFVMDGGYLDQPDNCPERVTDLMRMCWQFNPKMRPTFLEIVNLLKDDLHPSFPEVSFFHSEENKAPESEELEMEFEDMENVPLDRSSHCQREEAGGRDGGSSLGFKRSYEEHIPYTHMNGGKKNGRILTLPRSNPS
With `C[C@@H](c1ccc2nccn2c1)n1nnc2ncc(-c3cnn(C)c3)nc21` [SAVOLITINIB] the Kd was > 30 µM (inactive).
For `C[C@@H]1CN(Cc2ccc(F)cc2)[C@@H](C)CN1C(=O)c1cc2c(C(=O)C(=O)N(C)C)cn(C)c2cc1Cl` [TALMAPIMOD], the Kd was > 30 µM (inactive).
With `CN1CCC(COc2cnc(-c3cccc(Cn4nc(-c5cccc(C#N)c5)ccc4=O)c3)nc2)CC1` [TEPOTINIB] the Kd was > 30 µM (inactive).

Each molecule was assayed against Cyclin-dependent kinase 5 (Homo sapiens, UniProt Q00535).
Cyclin-dependent kinase 5, sequence (Q00535 whole entry): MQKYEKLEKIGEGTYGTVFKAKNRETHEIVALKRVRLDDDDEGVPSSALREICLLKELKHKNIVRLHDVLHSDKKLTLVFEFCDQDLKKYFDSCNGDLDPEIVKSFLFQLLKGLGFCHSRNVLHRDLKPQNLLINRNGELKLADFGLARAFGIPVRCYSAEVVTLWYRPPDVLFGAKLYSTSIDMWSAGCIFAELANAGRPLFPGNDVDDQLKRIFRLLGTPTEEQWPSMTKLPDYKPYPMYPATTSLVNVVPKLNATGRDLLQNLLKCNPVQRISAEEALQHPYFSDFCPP
In the case of `C[C@@H](c1ccc2nccn2c1)n1nnc2ncc(-c3cnn(C)c3)nc21` [SAVOLITINIB], the Kd is reported as > 30 µM (inactive).
With `C[C@@H]1CN(Cc2ccc(F)cc2)[C@@H](C)CN1C(=O)c1cc2c(C(=O)C(=O)N(C)C)cn(C)c2cc1Cl` [TALMAPIMOD] the Kd was > 30 µM (inactive).
For `CN1CCC(COc2cnc(-c3cccc(Cn4nc(-c5cccc(C#N)c5)ccc4=O)c3)nc2)CC1` [TEPOTINIB], the Kd was > 30 µM (inactive).

The molecules below were run against Aurora kinase B (Homo sapiens, UniProt Q96GD4).
Aurora kinase B, sequence (Q96GD4 whole entry): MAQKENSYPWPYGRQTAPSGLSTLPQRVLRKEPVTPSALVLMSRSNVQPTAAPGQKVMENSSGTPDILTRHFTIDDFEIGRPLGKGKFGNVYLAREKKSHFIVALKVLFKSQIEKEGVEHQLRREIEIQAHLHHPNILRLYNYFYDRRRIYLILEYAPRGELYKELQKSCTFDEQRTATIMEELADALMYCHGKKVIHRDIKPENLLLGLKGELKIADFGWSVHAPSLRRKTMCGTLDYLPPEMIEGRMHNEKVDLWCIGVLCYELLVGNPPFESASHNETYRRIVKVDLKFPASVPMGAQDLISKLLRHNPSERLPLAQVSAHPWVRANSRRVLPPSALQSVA
`C[C@@H](c1ccc2nccn2c1)n1nnc2ncc(-c3cnn(C)c3)nc21` [SAVOLITINIB] was tested, and the Kd was > 30 µM (inactive).
For `C[C@@H]1CN(Cc2ccc(F)cc2)[C@@H](C)CN1C(=O)c1cc2c(C(=O)C(=O)N(C)C)cn(C)c2cc1Cl` [TALMAPIMOD], the Kd was > 30 µM (inactive).
For `CN1CCC(COc2cnc(-c3cccc(Cn4nc(-c5cccc(C#N)c5)ccc4=O)c3)nc2)CC1` [TEPOTINIB], the Kd was > 30 µM (inactive).

What follows are molecules tested against DNA topoisomerase 2-alpha (Homo sapiens, UniProt P11388).
For `C[C@@H](c1ccc2nccn2c1)n1nnc2ncc(-c3cnn(C)c3)nc21` [SAVOLITINIB], the Kd was > 30 µM (inactive).

What follows are molecules tested against Serine/threonine-protein kinase 10 (Homo sapiens, UniProt O94804).
Serine/threonine-protein kinase 10, sequence (O94804 whole entry): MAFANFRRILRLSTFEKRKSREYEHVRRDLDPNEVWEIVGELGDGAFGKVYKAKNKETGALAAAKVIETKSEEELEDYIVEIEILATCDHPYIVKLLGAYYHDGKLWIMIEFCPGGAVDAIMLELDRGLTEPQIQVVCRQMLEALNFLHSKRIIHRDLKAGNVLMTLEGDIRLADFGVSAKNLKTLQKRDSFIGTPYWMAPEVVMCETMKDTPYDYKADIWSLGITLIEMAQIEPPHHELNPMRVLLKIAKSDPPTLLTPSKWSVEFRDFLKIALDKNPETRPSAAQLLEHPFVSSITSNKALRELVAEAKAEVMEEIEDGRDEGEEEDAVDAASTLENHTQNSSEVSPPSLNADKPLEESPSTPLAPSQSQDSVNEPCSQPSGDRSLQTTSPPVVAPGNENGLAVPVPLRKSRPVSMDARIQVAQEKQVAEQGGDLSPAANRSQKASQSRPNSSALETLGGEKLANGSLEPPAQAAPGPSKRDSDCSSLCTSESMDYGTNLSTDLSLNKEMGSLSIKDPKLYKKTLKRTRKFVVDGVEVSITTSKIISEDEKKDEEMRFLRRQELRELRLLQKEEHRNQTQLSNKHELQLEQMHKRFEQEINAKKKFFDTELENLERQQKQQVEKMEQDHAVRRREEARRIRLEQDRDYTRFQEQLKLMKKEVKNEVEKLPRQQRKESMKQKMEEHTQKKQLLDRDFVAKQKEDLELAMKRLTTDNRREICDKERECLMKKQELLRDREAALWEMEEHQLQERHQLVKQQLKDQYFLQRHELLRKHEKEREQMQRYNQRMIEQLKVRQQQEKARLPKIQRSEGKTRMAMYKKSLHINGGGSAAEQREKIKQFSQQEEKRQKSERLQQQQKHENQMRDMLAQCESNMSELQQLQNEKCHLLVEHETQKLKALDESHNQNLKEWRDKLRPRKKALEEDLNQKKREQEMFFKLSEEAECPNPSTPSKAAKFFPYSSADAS
For `C[C@@H](c1ccc2nccn2c1)n1nnc2ncc(-c3cnn(C)c3)nc21` [SAVOLITINIB], the Kd was > 30 µM (inactive).
In the case of `C[C@@H]1CN(Cc2ccc(F)cc2)[C@@H](C)CN1C(=O)c1cc2c(C(=O)C(=O)N(C)C)cn(C)c2cc1Cl` [TALMAPIMOD], the Kd is reported as > 30 µM (inactive).
With `CN1CCC(COc2cnc(-c3cccc(Cn4nc(-c5cccc(C#N)c5)ccc4=O)c3)nc2)CC1` [TEPOTINIB] the Kd was > 30 µM (inactive).

These molecules were tested against Ribosomal protein S6 kinase alpha-1 (Homo sapiens, UniProt Q15418).
Ribosomal protein S6 kinase alpha-1, sequence (Q15418 whole entry): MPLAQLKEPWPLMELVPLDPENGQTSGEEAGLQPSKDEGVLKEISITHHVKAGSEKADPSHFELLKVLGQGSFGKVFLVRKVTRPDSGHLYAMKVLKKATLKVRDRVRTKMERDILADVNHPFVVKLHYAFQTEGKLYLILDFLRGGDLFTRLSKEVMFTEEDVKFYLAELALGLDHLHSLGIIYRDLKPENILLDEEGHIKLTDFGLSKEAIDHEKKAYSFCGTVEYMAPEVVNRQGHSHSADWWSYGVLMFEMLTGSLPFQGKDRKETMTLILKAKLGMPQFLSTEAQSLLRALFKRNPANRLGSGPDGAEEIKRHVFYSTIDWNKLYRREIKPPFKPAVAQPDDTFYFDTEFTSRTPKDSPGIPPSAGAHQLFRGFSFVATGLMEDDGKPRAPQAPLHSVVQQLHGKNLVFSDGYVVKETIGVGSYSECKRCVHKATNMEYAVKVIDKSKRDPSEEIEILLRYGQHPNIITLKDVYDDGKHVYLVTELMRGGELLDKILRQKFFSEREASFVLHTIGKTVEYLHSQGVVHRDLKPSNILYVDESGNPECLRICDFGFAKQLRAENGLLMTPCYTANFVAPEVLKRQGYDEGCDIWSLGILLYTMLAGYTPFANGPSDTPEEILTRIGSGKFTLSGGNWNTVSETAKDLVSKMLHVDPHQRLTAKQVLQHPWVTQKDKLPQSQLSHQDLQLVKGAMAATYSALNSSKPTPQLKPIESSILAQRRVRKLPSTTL
In the case of `C[C@@H](c1ccc2nccn2c1)n1nnc2ncc(-c3cnn(C)c3)nc21` [SAVOLITINIB], the Kd is reported as > 30 µM (inactive).
In the case of `C[C@@H]1CN(Cc2ccc(F)cc2)[C@@H](C)CN1C(=O)c1cc2c(C(=O)C(=O)N(C)C)cn(C)c2cc1Cl` [TALMAPIMOD], the Kd is reported as > 30 µM (inactive).
In the case of `CN1CCC(COc2cnc(-c3cccc(Cn4nc(-c5cccc(C#N)c5)ccc4=O)c3)nc2)CC1` [TEPOTINIB], the Kd is reported as > 30 µM (inactive).

The molecules below were run against Serine/threonine-protein kinase SIK3 (Homo sapiens, UniProt Q9Y2K2).
For `C[C@@H](c1ccc2nccn2c1)n1nnc2ncc(-c3cnn(C)c3)nc21` [SAVOLITINIB], the Kd was > 30 µM (inactive).
In the case of `C[C@@H]1CN(Cc2ccc(F)cc2)[C@@H](C)CN1C(=O)c1cc2c(C(=O)C(=O)N(C)C)cn(C)c2cc1Cl` [TALMAPIMOD], the Kd is reported as > 30 µM (inactive).
With `CN1CCC(COc2cnc(-c3cccc(Cn4nc(-c5cccc(C#N)c5)ccc4=O)c3)nc2)CC1` [TEPOTINIB] the Kd was > 30 µM (inactive).

What follows are molecules tested against T3, Serine/threonine-protein kinase D3 (Homo sapiens, UniProt O94806).
T3 sequence (O94806 whole entry): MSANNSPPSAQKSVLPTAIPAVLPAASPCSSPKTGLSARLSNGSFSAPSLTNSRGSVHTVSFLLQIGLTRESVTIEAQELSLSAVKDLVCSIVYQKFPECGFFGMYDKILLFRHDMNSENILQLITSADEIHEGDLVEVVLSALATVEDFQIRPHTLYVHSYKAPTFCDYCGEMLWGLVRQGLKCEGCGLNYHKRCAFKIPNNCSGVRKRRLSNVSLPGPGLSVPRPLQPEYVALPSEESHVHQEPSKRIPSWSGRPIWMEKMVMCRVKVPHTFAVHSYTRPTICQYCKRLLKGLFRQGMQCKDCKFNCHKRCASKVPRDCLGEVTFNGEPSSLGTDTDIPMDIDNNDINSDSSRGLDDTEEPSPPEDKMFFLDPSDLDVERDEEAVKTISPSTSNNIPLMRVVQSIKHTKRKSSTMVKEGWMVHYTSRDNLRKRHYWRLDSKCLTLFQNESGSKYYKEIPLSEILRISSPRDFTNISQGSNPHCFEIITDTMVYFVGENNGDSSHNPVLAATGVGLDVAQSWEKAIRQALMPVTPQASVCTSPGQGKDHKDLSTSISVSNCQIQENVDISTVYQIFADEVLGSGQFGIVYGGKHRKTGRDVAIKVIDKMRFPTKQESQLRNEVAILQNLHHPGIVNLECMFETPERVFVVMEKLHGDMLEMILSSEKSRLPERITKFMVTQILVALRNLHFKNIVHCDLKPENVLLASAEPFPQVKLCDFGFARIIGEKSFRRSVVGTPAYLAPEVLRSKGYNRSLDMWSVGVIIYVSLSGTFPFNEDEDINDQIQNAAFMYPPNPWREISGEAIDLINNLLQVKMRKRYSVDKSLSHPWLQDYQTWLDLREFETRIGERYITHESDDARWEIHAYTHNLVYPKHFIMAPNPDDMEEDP
For `C[C@@H](c1ccc2nccn2c1)n1nnc2ncc(-c3cnn(C)c3)nc21` [SAVOLITINIB], the Kd was > 30 µM (inactive).
For `C[C@@H]1CN(Cc2ccc(F)cc2)[C@@H](C)CN1C(=O)c1cc2c(C(=O)C(=O)N(C)C)cn(C)c2cc1Cl` [TALMAPIMOD], the Kd was > 30 µM (inactive).
With `CN1CCC(COc2cnc(-c3cccc(Cn4nc(-c5cccc(C#N)c5)ccc4=O)c3)nc2)CC1` [TEPOTINIB] the Kd was > 30 µM (inactive).

The molecules below were run against T4, Calcium/calmodulin-dependent protein kinase type IV (Homo sapiens, UniProt Q16566).
T4 sequence (Q16566 whole entry): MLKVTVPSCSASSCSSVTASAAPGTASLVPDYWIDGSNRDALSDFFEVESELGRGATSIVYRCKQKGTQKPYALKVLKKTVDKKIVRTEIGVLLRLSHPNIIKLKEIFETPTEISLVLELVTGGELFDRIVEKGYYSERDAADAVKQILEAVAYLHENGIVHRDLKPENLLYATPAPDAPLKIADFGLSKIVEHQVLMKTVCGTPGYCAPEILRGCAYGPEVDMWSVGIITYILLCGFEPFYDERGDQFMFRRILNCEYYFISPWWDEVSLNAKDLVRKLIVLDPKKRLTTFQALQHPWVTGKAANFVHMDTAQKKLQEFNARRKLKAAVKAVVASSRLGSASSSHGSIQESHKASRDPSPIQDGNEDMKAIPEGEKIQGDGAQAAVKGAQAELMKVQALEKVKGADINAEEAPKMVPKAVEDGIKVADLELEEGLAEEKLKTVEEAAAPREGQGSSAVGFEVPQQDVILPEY
With `C[C@@H]1CN(Cc2ccc(F)cc2)[C@@H](C)CN1C(=O)c1cc2c(C(=O)C(=O)N(C)C)cn(C)c2cc1Cl` [TALMAPIMOD] the Kd was > 30 µM (inactive).
In the case of `CN1CCC(COc2cnc(-c3cccc(Cn4nc(-c5cccc(C#N)c5)ccc4=O)c3)nc2)CC1` [TEPOTINIB], the Kd is reported as > 30 µM (inactive).
